Measurements taken from US20080227655A1, “Assessment of effect of an agent on a human biological condition using rodent gene expression panels” (priority 2006, published 2008).
Several values for one entry are separate records, joined by “and”; a condition that tells them apart may be missing. Equal entries are not always repeated.

Tested on: custom murine 40-gene Precision Profile for Rheumatoid Arthritis, whole blood
Assay: Collagen Induced Arthritis (CIA) model, whole blood gene expression by QPCR, vehicle or dexamethasone treatment
Format: in vivo, male DBA/1 mice
Conditions: for Normalized CT (Delta CT) IL1RAP_M / Normalized CT (Delta CT) IL1RN—M / Normalized CT (Delta CT) IL6_M / Normalized CT (Delta CT) JUN_M / Normalized CT (Delta CT) MEF2C—M / Normalized CT (Delta CT) NFKB1—M / Normalized CT (Delta CT) PADI4—M / Normalized CT (Delta CT) PLA2G7—M / Normalized CT (Delta CT) PTPRC_M / Normalized CT (Delta CT) PTX3_M / Normalized CT (Delta CT) SER-PINE1_M / Normalized CT (Delta CT) TGFB1_M / Normalized CT (Delta CT) TIMP1_M / Normalized CT (Delta CT) TLR2_M / Normalized CT (Delta CT) TLR4_M / Normalized CT (Delta CT) TNFSF5—M / Normalized CT (Delta CT) TNF_M / Normalized CT (Delta CT) VEGF_M: whole blood
Description: Whole blood gene expression changes were evaluated in vehicle control and drug-treated murine subjects across two murine models of arthritis according to the following arthritis models:
KRN Transgenic Mouse (K/B×N): K/B×N serum from transgenic mouse used to induce arthritis in female BALB/c mice (n=54). Collagen Induced Arthritis (CIA): Bovine type II collagen used to induce arthritis in male DBA/1 mice (n=54).
In addition, naïve, untreated animal groups at baseline and terminal day were included to control for potential age-related changes in gene expression over the extended study periods. Animal groups, time-points, and treatment schedules are summarized in Tables 20A and 20B, respectively.
Whole blood samples from animals were collected by retro-orbital bleed at selected time-points in accordance with the arthritis study schemas described in […], and transferred into sample collection tubes containing a 1.5× lysis solution and RPMI. Samples were processed into total RNA and cDNA. […] It was anticipated from these murine models would provide a better understanding of the relevant molecular response of arthritis induction and their potential correlation to the human disease condition.
Normal murine subject reference values (represented as normalized Ct or ΔCt values) were established for male DBA/1 mice (n=6 for the CIA study arm) and female BALB/c mice (n=6 for the KRN study arm). In both arms of the study, gene expression response of normal (naïve, non-immunized and untreated) murine subjects were evaluated in groups of 6 each at day 0 and day 60 for the CIA study arm, and at day 0 and day 21 for the KRN study arm (see Tables 20A and 20B).
Gene expression responses for this arthritis-induced murine model were evaluated for untreated mice at day 24 and vehicle-treated mice at days 33, 42, and 60 to characterize disease progression.

[1] = CIA Day 33 Treated, group Average
[2] = CIA Day 33 Treated, individual mice
[3] = CIA Day 42 Treated, group Average

## C[C@@H]1C[C@H]2[C@@H]3CCC4=CC(=O)C=C[C@]4(C)[C@@]3(F)[C@@H](O)C[C@]2(C)[C@@]1(O)C(=O)CO [Dexamethasone]
[1]
  ABCA1_M Normalized CT Value (Delta CT), Average: 17.98
  APAF1_M Normalized CT Value (Delta CT), Average: 19.03
  ARG2_M Normalized CT Value (Delta CT), Average: 17.82
  CASP1_M Normalized CT Value (Delta CT), Average: 18.22
  CASP3_M Normalized CT Value (Delta CT), Average: 17.75
  CCR3_M Normalized CT Value (Delta CT), Average: 19.87
  CD8A_M Normalized CT Value (Delta CT), Average: 18.74
  CD14_M Normalized CT Value (Delta CT), Average: 17.29
  CD32_M Normalized CT Value (Delta CT), Average: 18.45
  CD86_M Normalized CT Value (Delta CT), Average: 22.19
  CSPG2_M Normalized CT Value (Delta CT), Average: 18.04
  F3_M Normalized CT Value (Delta CT), Average: 25.08
  HMOX1—M Normalized CT Value (Delta CT), Average: 17.47
  HSPA1A—M Normalized CT Value (Delta CT), Average: 19.62
  ICAM1—M Normalized CT Value (Delta CT), Average: 18.84
  IFI16_M Normalized CT Value (Delta CT), Average: 18.42
  IL1A_M Normalized CT Value (Delta CT), Average: 24.44
  IL1B_M Normalized CT Value (Delta CT), Average: 14.09
  IL10_M Normalized CT Value (Delta CT), Average: 25.81
  Normalized CT (Delta CT) IL1RAP_M: 17.96
  Normalized CT (Delta CT) IL1RN—M: 17.38
  Normalized CT (Delta CT) IL6_M: 23.95
  Normalized CT (Delta CT) JUN_M: 19.37
  Normalized CT (Delta CT) MEF2C—M: 18.84
  Normalized CT (Delta CT) NFKB1—M: 16.55
  Normalized CT (Delta CT) PADI4—M: 17.87
  Normalized CT (Delta CT) PLA2G7—M: 14.85
  Normalized CT (Delta CT) PTPRC_M: 13.58
  Normalized CT (Delta CT) PTX3_M: 25.65
  Normalized CT (Delta CT) SER-PINE1_M: 20.38
  Normalized CT (Delta CT) TGFB1_M: 14.82
  Normalized CT (Delta CT) TIMP1_M: 25.24
  Normalized CT (Delta CT) TLR2_M: 17.70
  Normalized CT (Delta CT) TLR4_M: 18.20
  Normalized CT (Delta CT) TNFSF5—M: 21.06
  Normalized CT (Delta CT) TNF_M: 19.71
  Normalized CT (Delta CT) VEGF_M: 20.19
[2]
  ABCA1_M Normalized CT Value (Delta CT): 17.26 and 18.20 and 17.50 and 17.61 and 19.02 and 18.30
  APAF1_M Normalized CT Value (Delta CT): 18.67 and 19.22 and 18.56 and 19.02 and 19.62 and 19.07
  ARG2_M Normalized CT Value (Delta CT): 17.14 and 18.42 and 17.47 and 17.92 and 17.83 and 18.15
  CASP1_M Normalized CT Value (Delta CT): 17.29 and 18.41 and 17.98 and 18.58 and 18.74 and 18.31
  CASP3_M Normalized CT Value (Delta CT): 16.82 and 17.64 and 17.74 and 18.06 and 18.00 and 18.21
  CCR3_M Normalized CT Value (Delta CT): 18.36 and 19.59 and 19.88 and 20.33 and 20.88 and 20.15
  CD8A_M Normalized CT Value (Delta CT): 17.83 and 18.69 and 18.52 and 18.83 and 19.44 and 19.14
  CD14_M Normalized CT Value (Delta CT): 17.10 and 17.77 and 16.89 and 17.05 and 17.36 and 17.54
  CD32_M Normalized CT Value (Delta CT): 17.52 and 18.69 and 18.07 and 18.17 and 19.57 and 18.71
  CD86_M Normalized CT Value (Delta CT): 21.71 and 22.43 and 21.83 and 21.99 and 22.92 and 22.26
  CSPG2_M Normalized CT Value (Delta CT): 17.33 and 18.26 and 17.36 and 18.91 and 17.94 and 18.42
  F3_M Normalized CT Value (Delta CT): 23.01 and 25.60 and 26.10 and 25.22 and 24.87 and 25.67
  HMOX1—M Normalized CT Value (Delta CT): 16.95 and 17.50 and 17.08 and 17.53 and 17.80 and 17.98
  HSPA1A—M Normalized CT Value (Delta CT): 18.80 and 20.04 and 19.25 and 20.03 and 19.32 and 20.30
  ICAM1—M Normalized CT Value (Delta CT): 18.16 and 19.11 (2×) and 18.33 and 19.33 and 19.01
  IFI16_M Normalized CT Value (Delta CT): 17.31 and 18.37 and 18.29 and 18.56 and 18.70 and 19.31
  IL1A_M Normalized CT Value (Delta CT): 24.58 and 24.31
  IL1B_M Normalized CT Value (Delta CT): 13.46 and 14.53 and 13.95 and 14.00 and 14.32 and 14.27
  IL10_M Normalized CT Value (Delta CT): 25.17 and 25.58 and 26.12 and 26.14 and 25.77 and 26.06
  Normalized CT (Delta CT) IL1RAP_M: 17.64 (2×) and 18.18 and 17.83 and 18.26 and 18.20
  Normalized CT (Delta CT) IL1RN—M: 16.72 and 17.84 and 17.10 and 17.67 and 17.23 and 17.73
  Normalized CT (Delta CT) IL6_M: 23.19 and 24.14 and 23.12 and 24.21 and 24.22 and 24.83
  Normalized CT (Delta CT) JUN_M: 18.61 and 19.69 and 19.28 and 19.18 and 19.87 and 19.60
  Normalized CT (Delta CT) MEF2C—M: 18.46 and 19.03 and 18.51 and 18.82 and 19.65 and 18.56
  Normalized CT (Delta CT) NFKB1—M: 15.81 and 16.66 and 16.35 and 16.51 and 17.38 and 16.63
  Normalized CT (Delta CT) PADI4—M: 17.79 and 18.22 and 17.82 and 17.94 and 17.90 and 17.58
  Normalized CT (Delta CT) PLA2G7—M: 14.49 and 15.12 and 14.67 and 15.01 and 15.09 and 14.74
  Normalized CT (Delta CT) PTPRC_M: 13.01 and 13.82 and 13.27 and 13.81 and 14.11 and 13.46
  Normalized CT (Delta CT) PTX3_M: 25.66 and 25.46 and 25.62 and 25.86 and 26.01 and 25.32
  Normalized CT (Delta CT) SER-PINE1_M: 20.09 and 20.42 and 20.70 and 20.01 and 20.26 and 20.78
  Normalized CT (Delta CT) TGFB1_M: 14.47 and 14.92 and 14.68 and 14.99 and 14.96 and 14.87
  Normalized CT (Delta CT) TIMP1_M: 25.48 and 25.27 and 25.34 and 25.05 and 25.73 and 24.56
  Normalized CT (Delta CT) TLR2_M: 17.23 and 17.92 and 17.46 and 17.97 and 17.84 and 17.81
  Normalized CT (Delta CT) TLR4_M: 17.72 and 18.52 and 18.24 and 18.23 and 18.30 and 18.16
  Normalized CT (Delta CT) TNFSF5—M: 20.24 and 21.35 and 20.73 and 21.36 and 21.76 and 20.95
  Normalized CT (Delta CT) TNF_M: 18.97 and 20.16 and 19.24 and 19.56 and 20.34 and 20.01
  Normalized CT (Delta CT) VEGF_M: 19.55 and 20.59 and 19.74 and 20.04 and 21.29 and 19.96
[3]
  ABCA1_M Normalized CT Value (Delta CT), Average: 19.35
  APAF1_M Normalized CT Value (Delta CT), Average: 19.60
  ARG2_M Normalized CT Value (Delta CT), Average: 17.90
  CASP1_M Normalized CT Value (Delta CT), Average: 18.55
  CASP3_M Normalized CT Value (Delta CT), Average: 18.07
  CCR3_M Normalized CT Value (Delta CT), Average: 19.53
  CD8A_M Normalized CT Value (Delta CT), Average: 19.66
  CD14_M Normalized CT Value (Delta CT), Average: 17.57
